Patent US20210395327A1, “Growth Hormone-Releasing Hormone Antagonists and Uses Thereof” (United States Government As Represented By The Department …, priority 2019, published 2021)
Non-standard residues stand in square brackets, D forms with d. Residues, ends and D or L forms follow the SMILES beside them. *: point of attachment. Phenylacetyl(2,3,4,5,6-F5) = O=C(Cc1c(F)c(F)c(F)c(F)c1F)*; Phe(F5) = N[C@@H](Cc1c(F)c(F)c(F)c(F)c1F)C(=O)O; Phe(4-Cl) = N[C@@H](Cc1ccc(Cl)cc1)C(=O)O; hArg = N=C(N)NCCCC[C@H](N)C(=O)O; 12Ado = NCCCCCCCCCCCC(=O)O; Nle = CCCC[C@H](N)C(=O)O; Abu = CC[C@H](N)C(=O)O

System: CFPAC-1 pancreatic cancer cells
Test: In vitro cell viability, CFPAC-1
Type: cell-based, human
Conditions: Table 3B; 5 μM for 72 H; MIA-602 = 1
Method in brief: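 Cells grown to ~60% confluence, serum-starved 24 h in 0.5% FBS medium, then exposed to compounds at 5 μM (some at 2 μM) or 0.1% DMSO vehicle for 72 h, in quintuplicate, medium changed every 48 h. Viability read by MTS-type CellTiter 96 AQueous assay; values are inhibitory potency relative to MIA602.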

Structure (SMILES): CCCC[C@H](NC(=O)[C@@H](NC(=O)[C@H](CC(=O)O)NC(=O)[C@H](CCC(N)=O)NC(=O)[C@H](CC(C)C)NC(=O)[C@H](CC(C)C)NC(=O)[C@H](CCCCN)NC(=O)[C@H](CCCNC(=N)N)NC(=O)[C@H](C)NC(=O)[C@H](CO)NC(=O)[C@H](CC(C)C)NC(=O)[C@H](CCC(N)=O)NC(=O)[C@H](CC)NC(=O)[C@H](CC(C)C)NC(=O)[C@@H](NC(=O)[C@H](CCCCN)NC(=O)[C@H](CCCNC(=N)N)NC(=O)[C@H](Cc1c(F)c(F)c(F)c(F)c1F)NC(=O)[C@H](CCCCNC(=N)N)NC(=O)[C@H](C)NC(=O)[C@@H](NC(=O)[C@H](Cc1ccc(Cl)cc1)NC(=O)[C@@H](NC(=O)[C@H](C)NC(=O)[C@H](CC(=O)O)NC(=O)[C@@H](CCCNC(=N)N)NC(=O)[C@H](Cc1ccc(O)cc1)NC(=O)CCCCCCCCCCCNC(=O)Cc1c(F)c(F)c(F)c(F)c1F)[C@@H](C)CC)[C@@H](C)O)C(C)C)[C@@H](C)CC)C(=O)N[C@H](CCCNC(=N)N)C(=O)N[C@@H](CCCCNC(=N)N)C(=O)NCCCCCCCCCCCC(=O)NC [AVR-354] ({Phenylacetyl(2,3,4,5,6-F5)-12Ado}-Y[dR]DAI[Phe(4-Cl)]TA[hArg][Phe(F5)]RKVL[Abu]QLSARKLLQDI[Nle][dR][hArg][12Ado]-NHMe)
- In vitro relative inhibitory potency in comparison to MIA-602, CFPAC-1: 1.67
